Experimental data from PubChem BioAssay (NCI).
Several values for one entry are separate records, joined by “and”; a condition that tells them apart may be missing. Identical values can stand only once.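 Cells were grown in 96-well plates and exposed to each compound for 48 hours at five concentrations; endpoints were interpolated linearly between bracketing concentrations, or set to the highest concentration if not reached. GI50: concentration for 50% inhibition of growth. The concentration for full growth arrest is given as TGI.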

Tests used:
Assay in all cases: NCI tumour cell line growth inhibition, 48 h
MOLT-4 leukemia = tested on: MOLT-4 leukemia
RPMI-8226 leukemia = tested on: RPMI-8226 leukemia
SW-620 colon = tested on: SW-620 colon
LXFL 529 NSCLC = tested on: LXFL 529 NSCLC
SK-MEL-28 melanoma = tested on: SK-MEL-28 melanoma
SNB-75 CNS = tested on: SNB-75 CNS
DMS 114 small cell lung = tested on: DMS 114 small cell lung
ACHN renal = tested on: ACHN renal
T-47D breast = tested on: T-47D breast
BT-549 breast = tested on: BT-549 breast

| SMILES | TGI (MOLT-4 leukemia) [µM] | TGI (RPMI-8226 leukemia) [µM] | TGI (SW-620 colon) | TGI (LXFL 529 NSCLC) [µM] | TGI (SK-MEL-28 melanoma) | TGI (SNB-75 CNS) | TGI (DMS 114 small cell lung) [µM] | TGI (ACHN renal) | GI50 (MOLT-4 leukemia) [µM] | GI50 (RPMI-8226 leukemia) [µM] | GI50 (SW-620 colon) [µM] | GI50 (LXFL 529 NSCLC) [µM] | GI50 (SK-MEL-28 melanoma) [µM] | GI50 (DMS 114 small cell lung) [µM] | GI50 (ACHN renal) [µM] | GI50 (T-47D breast) [µM] | TGI (T-47D breast) [µM] | GI50 (SNB-75 CNS) [µM] | GI50 (BT-549 breast) [µM] | TGI (BT-549 breast) [µM] |
| --- | --- | --- | --- | --- | --- | --- | --- | --- | --- | --- | --- | --- | --- | --- | --- | --- | --- | --- | --- | --- |
| CC1=C(C(=O)Nc2ccccc2C)C(c2ccc(C3C(C(=O)Nc4ccccc4C)=CNC=C3C(=O)Nc3ccccc3C)cc2)C(C(=O)Nc2ccccc2C)=C(C)N1 | > 40.3 | > 73 | 32.6 µM | 26.6 | 36.3 µM | 54.8 µM | > 60.5 | 30.6 µM |  |  |  |  |  |  |  |  |  |  |  |  |
| CC1CCC23COC(=O)C2C(O)CCC3C1(C)CC(O)c1ccoc1 (stereo not given) | > 100 |  | > 100 µM | > 100 | > 100 µM | > 100 µM | > 100 | > 100 µM |  |  |  |  |  |  |  |  |  |  |  |  |
| O=C1C(N2C(=O)c3ccccc3C2=O)CN1C(COCc1ccccc1)c1ccc(OCc2ccccc2)cc1 (stereo not given) | > 100 | > 100 | > 100 µM | > 100 | > 100 µM | > 100 µM | > 100 | > 100 µM |  |  |  |  |  |  |  |  |  |  |  |  |
| CN(C)CCC1(C2=CCCC2)CC/C(=C\c2ccccc2)C1=O (stereo not given) | 39 | 35.1 | 32.2 µM | 29.6 | 38 µM | 35.9 µM | 33.2 | 28.6 µM |  |  |  |  |  |  |  |  |  |  |  |  |
| O=c1[nH]c(/C=C(\O)c2ccncc2)nc2ccccc12 | > 100 | > 100 | > 100 µM |  | > 100 µM | > 100 µM | > 100 | > 100 µM |  |  |  |  |  |  |  |  |  |  |  |  |
| COC(=O)C(Cc1nc2ccccc2[nH]c1=O)C(=O)C(=O)Nc1ccc(OC)cc1[N+](=O)[O-] (stereo not given) | > 100 | > 100 | > 100 µM | > 100 | > 100 µM |  |  | > 100 µM |  |  |  |  |  |  |  |  |  |  |  |  |
| O=c1/c(=C/c2ccc3c(c2)OCO3)sc2nnc(-c3ccco3)n12 | > 100 | > 100 | > 100 µM | > 100 | > 100 µM | 71.2 µM | > 100 | > 100 µM |  |  |  |  |  |  |  |  |  |  |  |  |
| CN(C)/C=N/c1nc2ncn(CCOC(=O)c3ccccc3)c2c(=O)[nH]1 |  | > 100 | > 100 µM | > 100 | > 100 µM | > 100 µM | > 100 | > 100 µM |  |  |  |  |  |  |  |  |  |  |  |  |
| CCSc1nc2n(c(=S)n1)CCN2C | 39.1 | 61.7 | 56.9 µM | 29.5 | 41.3 µM | 30.8 µM | 39.4 | 60.6 µM |  |  |  |  |  |  |  |  |  |  |  |  |
| CC(Oc1ccc2cc(C(=O)c3ccccc3)c(=O)oc2c1)C(=O)O (stereo not given) | > 100 |  | > 100 µM | > 100 | > 100 µM | > 100 µM | > 100 | > 100 µM |  |  |  |  |  |  |  |  |  |  |  |  |
| Cc1cc2c(cc1C)[n+](=O)c(C(=O)/C=C/c1ccccc1Cl)c(C)n2[O-] | > 100 | > 100 | > 100 µM | 34.6 | 86.8 µM | 47.5 µM | 53.4 | 58.1 µM |  |  |  |  |  |  |  |  |  |  |  |  |
| COc1ccc(C(=O)O)c(Cc2ccc3ccccc3c2)c1 | > 100 | > 100 | > 100 µM | > 100 | > 100 µM | > 100 µM | > 100 | > 100 µM |  |  |  |  |  |  |  |  |  |  |  |  |
| O=C([O-])c1ccccc1Nc1ccccc1[O-].[Ni+3].[OH3+].[OH3+].[OH3+] | > 100 | > 100 | > 100 µM | > 100 | > 100 µM |  | > 100 | > 100 µM | > 100 | > 100 | > 100 | > 100 | > 100 | > 100 | > 100 |  |  |  |  |  |
| C=C1N(C)c2ccc(Cl)cc2C1(C)C | 55 | 10.4 | > 100 µM |  | > 100 µM | 77.3 µM |  | > 100 µM | 6.94 | 2.56 | 5.8 |  | 19.7 |  | 24.6 | 3.54 | > 100 | 4.25 | 3.35 | 22.3 |
| Cc1cc2c(c(N)c1C)C(=O)c1ccccc1C2=O | > 100 | > 100 | > 100 µM | > 100 |  | 39.8 µM | > 100 | > 100 µM |  |  |  |  |  |  |  |  |  |  |  |  |
| CCN(CC(COc1ccc2c(c1)[n+]([O-])nc(N)[n+]2[O-])OC(C)=O)C(C)=O (stereo not given) | > 100 | > 100 | > 100 µM |  | > 100 µM | > 100 µM |  | > 100 µM |  |  |  |  |  |  |  |  | > 100 |  |  | > 100 |
| S=C(N/N=C(/c1ccccc1)c1ccccn1)Nc1cccc(Cl)c1 |  |  | 2.88 µM and 5.77 µM |  | 7.69 µM and 6.18 µM | 2.92 µM and 4.88 µM |  | 4.6 µM and 5.42 µM | 0.00303 | 0.00601 | 0.0444 |  | 2.09 |  |  | 0.56 |  | 0.608 |  | 6.22 |
| Cc1ccccc1/C=C1\CN(C(=O)OC(C)(C)C)C/C(=C\c2ccccc2C)C1=O | 21.8 | 5.37 | 7.07 µM |  | 6.43 µM | 9.34 µM |  | 7.15 µM | 2.9 | 1.66 | 2.99 |  | 2.8 |  | 2.7 | 3.78 | > 100 | 2.71 | 2.3 | 6.61 |
| COc1ccc(CNc2nc(NCc3ccc(OC)cc3)c3n[nH]c(C(C)C)c3n2)cc1 | 14.4 | 12.5 | > 100 µM |  | 16 µM | 5.32 µM |  | 20.7 µM | 3.88 | 3.27 | 3.27 |  | 2.13 |  | 7.6 | 3.38 | 42.6 | 0.406 | 3.47 | 12.2 |
| O=C(O)C1OC(Oc2cc(O)c3c(=O)cc(-c4ccc(O)cc4)oc3c2)C(O)C(O)C1O (stereo not given) |  |  | > 100 µM | > 100 | > 100 µM | > 100 µM | > 100 | > 100 µM |  |  |  |  |  |  |  |  |  |  |  |  |
| Cc1nc2cc(N)c(Cl)cc2[nH]1 | > 100 | > 100 | > 100 µM |  | > 100 µM | > 100 µM |  | > 100 µM |  |  |  |  |  |  |  |  | > 100 |  |  | > 100 |
| CC1=C(c2cc(C(=O)Nc3nccs3)nc(NC#N)n2)Sc2ccccc2N1 | > 100 | > 100 | > 100 µM | > 100 | > 100 µM | > 100 µM |  | > 100 µM |  |  |  |  |  |  |  |  |  |  |  |  |
| N=c1ccn2c(n1)O[C@@H]1[C@@H](O)[C@H](CO)O[C@@H]12 | > 100 | > 100 | > 100 µM |  | > 100 µM | 47.6 µM |  | > 100 µM | 0.161 | > 100 | 4.59 |  | 4.89 |  | 1.45 | 8.96 | > 100 | 1.58 | 41.3 | > 100 |
